Results taken from US10266548B2, “Substituted benzylindazoles for use as Bub1 kinase inhibitors in the treatment of hyperproliferative diseases” (Bayer Intellectual Property GmbH, priority 2011, dated 2019).
Counter-ions that a name gives are not always drawn. Like-named read-outs stand apart in the source and are kept apart here.

Tests used:
[1] = molecular target: catalytic domain of human Bub1 (amino acids 704-1085) (Homo sapiens (Human), UniProt O43683); assay: Bub1 kinase assay (TR-FRET); assay type: biochemical; conditions: 10 μM ATP, 1 μM peptide substrate; read-out: Biological Assay 1: Bub1 kinase assay median IC50
Sequence of catalytic domain of human Bub1 (amino acids 704-1085) (O43683 704-1085): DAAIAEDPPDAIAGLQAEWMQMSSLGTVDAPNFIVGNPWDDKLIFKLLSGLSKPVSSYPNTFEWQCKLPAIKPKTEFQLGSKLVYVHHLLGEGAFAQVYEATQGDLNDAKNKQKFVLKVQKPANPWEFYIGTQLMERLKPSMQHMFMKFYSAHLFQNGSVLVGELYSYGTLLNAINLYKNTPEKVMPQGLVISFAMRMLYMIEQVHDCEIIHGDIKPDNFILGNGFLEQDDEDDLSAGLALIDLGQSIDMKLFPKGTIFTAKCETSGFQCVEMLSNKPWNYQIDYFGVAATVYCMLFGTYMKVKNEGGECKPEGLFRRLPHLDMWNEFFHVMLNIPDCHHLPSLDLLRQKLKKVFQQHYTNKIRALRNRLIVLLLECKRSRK
Summary of the method: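 Phosphoserine product detected by TR-FRET (Eu-labeled anti-mouse IgG/anti-phosphoserine antibody to streptavidin-XL665) after 1 h at 22 °C. IC50 from 4-parameter logistic fit.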

HeLa cells = assay: Proliferation assay (HeLa cell line); assay type: cell-based; conditions: read-out: Biological Assay 2: Proliferation assay (HeLa cell line) median IC50
Caco2 cells = assay: Proliferation assay (Caco2 cell line); assay type: cell-based; conditions: read-out: Biological Assay 2: Proliferation assay (Caco2 cell line) median IC50
Experimental: (§1) Cultivated tumor cells (cells were ordered from ATCC, except HeLa-MaTu and HeLa-MaTu-ADR, which were ordered from EPO-GmbH, Berlin) were plated at a density of 1000 to 5000 cells/well, depending on the growth rate of the respective cell line, in a 96-well multititer plate in 200 μL of their respective growth medium supplemented 10% fetal calf serum. After 24 hours, the cells of one plate (zero-point plate) were stained with crystal violet (see below), while the medium of the other plates was replaced by fresh culture medium (200 μl), to which the test substances were added in various concentrations (0 μM, as well as in the range of 0.001-10 μM; the final concentration of the solvent dimethyl sulfoxide was 0.5%). The cells were incubated for 4 days in the presence of test substances. Cell proliferation was determined by staining the cells with crystal violet: the cells were fixed by adding 20 μl/measuring point of an 11% glutaric aldehyde solution for 15 minutes at room temperature. After three washing cycles of the fixed cells with water, the plates were dried at room temperature. The cells were stained by adding 100 μl/measuring point of a 0.1% crystal violet solution (pH 3.0). After three washing cycles of the stained cells with water, the plates were dried at room temperature. The dye was dissolved by adding 100 μl/measuring point of a 10% acetic acid solution. […] The change of cell number, in percent, was calculated by normalization of the measured values to the aborbtion values of the zero-point plate (=0%) and the absorbtion of the untreated (0 μm) cells (=100%). The IC50 values were determined by means of a 4 parameter fit using the company's own software.

NCI-H460 cells = assay: Proliferation assay (H460 cell line); assay type: cell-based; conditions: read-out: Biological Assay 2: Proliferation assay (H460 cell line) median IC50
Experimental: as §1

B16F10 cells = assay: Proliferation assay (B16F10 cell line); assay type: cell-based; conditions: read-out: Biological Assay 2: Proliferation assay (B16F10 cell line) median IC50
Experimental: as §1

DU145 cells = assay: Proliferation assay (DU145 cell line); assay type: cell-based; conditions: read-out: Biological Assay 2: Proliferation assay (DU145 cell line) median IC50
Experimental: as §1

HeLa-MaTu-ADR cells = assay: Proliferation assay (HeLa-MaTu-ADR cell line); assay type: cell-based; conditions: read-out: Biological Assay 2: Proliferation assay (HeLa-MaTu-ADR cell line) median IC50
Experimental: as §1

[2] = HeLa-MaTu-ADR, 4 days, crystal violet
[3] = Homo sapiens, 96 h, 4 days, crystal violet
[4] = Homo sapiens, Caco-2, 96 h, Caco2, 4 days, crystal violet
[5] = Homo sapiens, NCI-H460, 96 h, H460, 4 days, crystal violet
[6] = Mus musculus, B16-F10, 96 h, B16F10, 4 days, crystal violet
[7] = Homo sapiens, DU-145, 96 h, DU145, 4 days, crystal violet
[8] = 96 h, HeLa-MaTu-ADR, 4 days, crystal violet

IC50 [1]	IC50 (HeLa cells; 4 days, crystal violet)	IC50 (Caco2 cells; Caco2, 4 days, crystal violet)	IC50 (NCI-H460 cells; H460, 4 days, crystal violet)	IC50 (B16F10 cells; B16F10, 4 days, crystal violet)	IC50 (DU145 cells; DU145, 4 days, crystal violet)	IC50 (HeLa-MaTu-ADR cells; [2])	IC50 (HeLa cells; [3])	IC50 (Caco2 cells; [4])	IC50 (NCI-H460 cells; [5])	IC50 (B16F10 cells; [6])	IC50 (DU145 cells; [7])	IC50 (HeLa-MaTu-ADR cells; [8])	SMILES	IC50 (HeLa cells; Homo sapiens, 96 h)	IC50 (Caco2 cells; Homo sapiens, Caco-2, 96 h)	IC50 (NCI-H460 cells; Homo sapiens, NCI-H460, 96 h)	IC50 (B16F10 cells; Mus musculus, B16-F10, 96 h)	IC50 (DU145 cells; Homo sapiens, DU-145, 96 h)	IC50 (HeLa-MaTu-ADR cells; 96 h)
0.0034 µM	1.2 µM	0.6 µM	1.1 µM	0.6 µM	1.3 µM	1.1 µM							CCOc1cc(F)c(Cn2nc(-c3ncc(OCC4CNCCO4)c(Nc4ccncc4)n3)c3ccccc32)c(F)c1 (stereo not shown) [Example 38-2]						
0.014 µM							3.9 µM	1.9 µM	9 µM	1.5 µM	2.5 µM	0.1 µM	COc1cnc(-c2nn(Cc3cc4c(cc3Br)OCO4)c3ccccc23)nc1Nc1ccncc1 [Example 2-4-3, 2-{1-[(6-bromo-1,3-benzodioxol-5-yl)methyl]-1H-indazol-3-yl}-5-methoxy-N-(pyridin-4-yl)pyrimidin-4-amine]						
0.038 µM							1.6 µM	3.4 µM	6.6 µM	1.2 µM	2.6 µM	1.2 µM	COc1cnc(-c2nn(Cc3c(Cl)ccc(C(F)(F)F)c3Cl)c3ccccc23)nc1Nc1ccncc1 [Example 2-34-1, 2-{1-(2,6-dichloro-3-(trifluoromethyl)benzyl]-1H-indazol-3-yl}-5-methoxy-N-(pyridin-4-yl)pyrimidin-4-amine]						
0.019 µM							6 µM	3.3 µM	10 µM	1.8 µM	10 µM	10 µM	COc1cnc(-c2nn(Cc3c(Cl)ccc(NC(C)=O)c3Cl)c3ccccc23)nc1Nc1ccncc1 [Example 41-1, N-[2,4-dichloro-3-({3-[5-methoxy-4-(pyridin-4-ylamino)pyrimidin-2-yl]-1H-indazol-1-yl}methyl)phenyl]acetamide]						
0.42 µM							1.7 µM	1.1 µM	1.5 µM	0.9 µM	1.4 µM	0.59 µM	CCOc1cc(F)c(Cn2nc(-c3ncc(OC(F)F)c(N(c4ccncc4)C(F)F)n3)c3ccccc32)c(F)c1 [Example 10-2]						
0.0052 µM		1.2 µM	2.2 µM	0.76 µM	1.2 µM	1.2 µM	1.4 µM						CCOc1cc(F)c(Cn2nc(-c3ncc(OC)c(Nc4ccncc4)n3)c3ccccc32)c(F)c1 [Example 15-1, 2-[1-(4-ethoxy-2,6-difluorobenzyl)-1H-indazol-3-yl]-5-methoxy-N-(pyridin-4-yl)pyrimidin-4-amine hydrochloride (1:1)]						
0.015 µM							9.8 µM	10 µM	10 µM	10 µM	10 µM	10 µM	CCCc1ccc(Cn2nc(-c3ncc(OC)c(Nc4ccncc4)n3)c3ccccc32)cc1 [Example 2-25-1, 5-methoxy-2-[1-(4-propylbenzyl)-1H-indazol-3-yl]-N-(pyridin-4-yl)pyrimidin-4-amine]						
0.2 µM							0.19 µM	3 µM	3 µM	2.4 µM	3 µM	3 µM	CNC(=O)c1ccc(Cl)c(Cn2nc(-c3ncc(OC)c(Nc4ccncc4)n3)c3ccccc32)c1Cl [Example 20-1, 2,4-dichloro-3-({3-[5-methoxy-4-(pyridin-4-ylamino)pyrimidin-2-yl]-1H-indazol-1-yl}methyl)-N-methylbenzamide]						
0.029 µM							4.2 µM	2.4 µM	8.5 µM	1.3 µM	5.3 µM	2.3 µM	COc1cnc(-c2nn(Cc3ccc4c(C)cc(=O)oc4c3)c3ccccc23)nc1Nc1ccncc1 [Example 2-32-1, 7-({3-[5-methoxy-4-(pyridin-4-ylamino)pyrimidin-2-yl]-1H-indazol-1-yl}methyl)-4-methyl-2H-chromen-2-one]						

SMILES	IC50 [1]	IC50 (HeLa cells; 4 days, crystal violet)	IC50 (Caco2 cells; Caco2, 4 days, crystal violet)	IC50 (NCI-H460 cells; H460, 4 days, crystal violet)	IC50 (B16F10 cells; B16F10, 4 days, crystal violet)	IC50 (DU145 cells; DU145, 4 days, crystal violet)	IC50 (HeLa-MaTu-ADR cells; [2])	IC50 (HeLa cells; [3])	IC50 (Caco2 cells; [4])	IC50 (NCI-H460 cells; [5])	IC50 (B16F10 cells; [6])	IC50 (DU145 cells; [7])	IC50 (HeLa-MaTu-ADR cells; [8])	IC50 (HeLa cells; Homo sapiens, 96 h)	IC50 (Caco2 cells; Homo sapiens, Caco-2, 96 h)	IC50 (NCI-H460 cells; Homo sapiens, NCI-H460, 96 h)	IC50 (B16F10 cells; Mus musculus, B16-F10, 96 h)	IC50 (DU145 cells; Homo sapiens, DU-145, 96 h)	IC50 (HeLa-MaTu-ADR cells; 96 h)
COc1ccc(Cn2nc(-c3nccc(Nc4ccncc4)n3)c3ccccc32)cc1 [Example 5-2, 2-[1-(4-methoxybenzyl)-1H-indazol-3-yl]-N-(pyridin-4-yl)pyrimidin-4-amine]	0.027 µM													0.71 µM	3 µM	3 µM	3 µM	3 µM	3 µM
COc1cnc(-c2nn(Cc3c(Cl)cc(OC(F)(F)F)cc3Cl)c3ccccc23)nc1Nc1ccncc1 [Example 2-26-1, 2-{1-[2,6-dichloro-4-(trifluoromethoxy)benzyl]-1H-indazol-3-yl}-5-methoxy-N-(pyridin-4-yl)pyrimidin-4-amine]	0.016 µM													0.56 µM	0.38 µM	1 µM	0.42 µM	0.53 µM	0.39 µM
COc1cnc(-c2nn(Cc3c(F)cc(C#N)cc3F)c3ccccc23)nc1Nc1ccncc1 [Example 2-46-1, 3,5-difluoro-4-({3-[5-methoxy-4-(pyridin-4-ylamino)pyrimidin-2-yl]-1H-indazol-1-yl}methyl)benzonitrile]	0.016 µM													1.4 µM	0.9 µM	0.88 µM	0.71 µM	0.85 µM	0.38 µM
C/C=C/c1cc(F)c(Cn2nc(-c3ncc(OC)c(Nc4ccncc4)n3)c3ccccc32)c(F)c1 [Example 6-2, 2-(1-{2,6-difluoro-4-[(1E)-prop-1-en-1-yl]benzyl}-1H-indazol-3-yl)-5-methoxy-N-(pyridin-4-yl)pyrimidin-4-amine]	0.0074 µM													1.4 µM	1.2 µM	1.7 µM	1.1 µM	1.4 µM	1.6 µM
OCC(O)COc1cnc(-c2nn(Cc3ccccc3F)c3ccccc23)nc1Nc1ccncc1 (stereo not shown) [Example 12-1, 3-({2-[1-(2-fluorobenzyl)-1H-indazol-3-yl]-4-(pyridin-4-ylamino)-pyrimidin-5-yl}oxy)propane-1,2-diol]	0.011 µM													≥ 10 µM	10 µM	10 µM	10 µM	10 µM	10 µM
COc1cnc(-c2nn(Cc3c(F)cc(Br)cc3F)c3ccccc23)nc1Nc1ccncc1 [Example 2-12-1, 2-[1-(4-bromo-2,6-difluorobenzyl)-1H-indazol-3-yl]-5-methoxy-N-(pyridin-4-yl)pyrimidin-4-amine]	0.0073 µM													1.6 µM	1.4 µM	1.5 µM	1.4 µM	1.6 µM	1.3 µM
OCC1(COc2cnc(-c3nn(Cc4ccccc4F)c4ccccc34)nc2Nc2ccncc2)COC1 [Example 4-2-1, {3[({2-[1-(2-fluorobenzyl)-1H-indazol-3-yl]-4-(pyridin-4-ylamino)pyrimidin-5-yl}oxy)methyl]oxetan-3-yl}methanol]	0.0033 µM													8.7 µM	9.9 µM	6.5 µM	3.7 µM	10 µM	5.8 µM
